Starred links: 1 amine or outer side, 2 acyl side, 3 side chain; linkers in the order of their positions; H or OH if unused. Positions of bridges follow the written chain, without caps; N, C: chain ends. Non-standard residues stand in square brackets, D forms with d. Residues, ends and D or L forms follow the SMILES beside them. *: point of attachment. NMeF = CN[C@@H](Cc1ccccc1)C(=O)O; NMeGABA = CN(CCCC(=O)[*:2])[*:1]; NMeβAla = CN(CCC(=O)[*:2])[*:1]; NMeL = CN[C@@H](CC(C)C)C(=O)O; NMeV = CN[C@H](C(=O)O)C(C)C; NMeA = CN[C@@H](C)C(=O)O; Piperidide = C1CCN(*)CC1; dNMeA = CN[C@H](C)C(=O)O; Sar = CNCC(=O)O

The nature of the first data set: PAMPA (parallel artificial membrane permeability assay). The format is in vitro ADME. To be noted: PAMPA, pH 6.5. The procedure: 4 μL of a phospholipid-organic solvent solution composed of 10% (w/v) of egg lecithin, 0.5% (w/v) of cholesterol and dodecane (all purchased from Fluka) was added to a Millipore 96-well membrane filter (hydrophobic PVDF (polyvinylidene difluoride), pore size 0.45 microm) (purchased from Millipore Japan) to make an artificial phospholipid membrane.
A DMSO solution containing the compound at a concentration of 10 mM was added in a percentage of 0.5% (v/v) to a 50 mM MOPSO buffer, pH 6.5, containing 5.0% (w/v) of glycocholic acid, and 330 μL of the mixture was added to a 96-well plate made of Teflon (donor plate). The above artificial phospholipid membrane plate was attached onto the donor plate, and 280 μL of a solution obtained by adding DMSO in a percentage of 0.5% (v/v) to a 50 mM MOPSO buffer, pH 6.5, containing 5.0% (w/w) of glycocholic acid was added onto the artificial phospholipid membrane (acceptor plate). These plates were allowed to stand at 37° C. for 18 hours, after which the concentrations of the compound in the solutions in the donor plate and the acceptor plate were measured by LC/MS or LC/UV, and the membrane permeation rate of the compound (Pe) was calculated by the following formulas (1) and (2), where t is the testing time, A is the membrane filter area, VD is the amount of the donor solution, VA is the amount of the acceptor solution, CD,t is the concentration of the compound in the donor solution at the time t, and CA,t is the concentration of the compound in the acceptor solution at the time t.
On the technique in general: PAMPA measures passive passage across an artificial lipid membrane.
Compound `CC[C@H](C)[C@@H]1NC(=O)[C@H](Cc2ccccc2)N(C)C(=O)[C@H]([C@@H](C)O)NC(=O)[C@H](C)NC(=O)C[C@@H](C(=O)N(C)[C@@H](Cc2ccccc2)C(=O)N(C)[C@@H](Cc2ccccc2)C(=O)N[C@@H](C)C(=O)N2CCCCC2)NC(=O)[C@H](CC(C)C)N(C)C(=O)[C@H](CC(C)C)N(C)C(=O)[C@H](Cc2ccccc2)N(C)C(=O)[C@H](CC(C)C)N(C)C(=O)[C@H](C)N(C)C1=O` [DP-286] (AT[NMeF]I[NMeA][NMeL][NMeF][NMeL][NMeL]D[NMeF][NMeF]A-Piperidide; lactam N-10) registered a Papp at 18 hours, 50 µM of 0.24 ×10⁻⁶ cm/s. Same read-out and setting: to `CC[C@H](C)[C@@H]1NC(=O)[C@H](C)N(C)C(=O)C[C@@H](C(=O)N(C)[C@@H](Cc2ccccc2)C(=O)N[C@@H](C)C(=O)N2CCCCC2)NC(=O)[C@H](Cc2ccccc2)N(C)C(=O)CN(C)C(=O)[C@H]([C@@H](C)O)NC(=O)[C@H](C)N(C)C(=O)[C@H](C(C)C)N(C)C(=O)[C@H](CC(C)C)N(C)C(=O)[C@H](Cc2ccccc2)NC(=O)[C@H](CC(C)C)N(C)C1=O` [DP-279] ([NMeA]I[NMeL]F[NMeL][NMeV][NMeA]T[Sar][NMeF]D[NMeF]A-Piperidide; lactam N-11) belongs 15 ×10⁻⁶ cm/s.

Still in this data set, the particulars now being: PAMPA; membrane permeation rate (Pe); 50 mM MOPSO buffer pH 6.5 with 5.0% glycocholic acid, 37° C., 18 hours; read-out: iPAMPA Pe.
As to `CC(C)C[C@H]1C(=O)N[C@H](C(=O)N(C)[C@@H](Cc2ccccc2)C(=O)N(C)[C@@H](Cc2ccccc2)C(=O)N[C@@H](C)C(=O)N2CCCCC2)CC(=O)N(C)[C@@H](C)C(=O)N(C)[C@@H](C)C(=O)N(C)[C@@H](Cc2ccccc2)C(=O)N[C@@H]([C@@H](C)O)C(=O)N(C)[C@@H](C)C(=O)N(C)[C@@H](CC(C)C)C(=O)N(C)[C@@H](CC(C)C)C(=O)N[C@@H](C(C)C)C(=O)N1C` [DP-206] ([NMeA][NMeA][NMeF]T[NMeA][NMeL][NMeL]V[NMeL]D[NMeF][NMeF]A-Piperidide; lactam N-10), the Papp at 18 hours, 50 µM came to 9 ×10⁻⁶ cm/s. Turning to `CC[C@H](C)[C@@H]1NC(=O)[C@H](C)NC(=O)C[C@@H](C(=O)N(C)[C@@H](Cc2ccccc2)C(=O)N[C@@H](C)C(=O)N2CCCCC2)NC(=O)[C@H](Cc2ccccc2)N(C)C(=O)[C@H](CC(C)C)N(C)C(=O)[C@H](C)N(C)C(=O)[C@H]([C@@H](C)O)NC(=O)[C@H](Cc2ccccc2)N(C)C(=O)[C@H](CC(C)C)N(C)C(=O)[C@H](C)N(C)C(=O)[C@H](CC(C)C)N(C)C1=O` [DP-178] (AI[NMeL][NMeA][NMeL][NMeF]T[NMeA][NMeL][NMeF]D[NMeF]A-Piperidide; lactam N-11), the Papp at 18 hours, 50 µM was 1 ×10⁻⁶ cm/s. Still for that read-out and setting: the result for `CC(C)C[C@H]1C(=O)N[C@H](C(=O)N(C)[C@@H](Cc2ccccc2)C(=O)N(C)[C@@H](Cc2ccccc2)C(=O)N[C@@H](C)C(=O)N2CCCCC2)CC(=O)N[C@H](C(C)C)C(=O)N(C)[C@@H](Cc2ccccc2)C(=O)N(C)[C@@H](CC(C)C)C(=O)N[C@@H]([C@@H](C)O)C(=O)N(C)[C@@H](C)C(=O)N(C)[C@@H](CC(C)C)C(=O)N[C@@H](C(C)C)C(=O)N1C` [DP-210] ([dV][NMeF][NMeL]T[NMeA][NMeL]V[NMeL]D[NMeF][NMeF]A-Piperidide; lactam N-9) reads 1.8 ×10⁻⁶ cm/s; that for `CC[C@H](C)[C@H](NC(=O)[C@H](C)N(C)C(=O)[C@@H]1CC(=O)N(C)[C@H](C)C(=O)N(C)[C@@H](C)C(=O)N(C)[C@@H](Cc2ccccc2)C(=O)N(C)[C@@H](CC(C)C)C(=O)N[C@@H]([C@@H](C)O)C(=O)N(C)[C@@H](C)C(=O)N(C)[C@@H](CC(C)C)C(=O)N[C@@H](CO)C(=O)N1)C(=O)N1CCC[C@H]1C(=O)N[C@H](C(=O)N[C@@H](C)C(=O)N1CCCCC1)C(C)C` [DP-578] ([dNMeA][NMeA][NMeF][NMeL]T[NMeA][NMeL]SD[NMeA]IPVA-Piperidide; lactam N-9), 3.4 ×10⁻⁶ cm/s; that for `CC[C@H](C)[C@@H]1NC(=O)[C@H](C)N(C)C(=O)[C@H](CC(C)C)N(C)C(=O)CCCN(C)C(=O)C[C@@H](C(=O)N(C)[C@@H](Cc2ccccc2)C(=O)N[C@@H](C)C(=O)N2CCCCC2)NC(=O)[C@H](CC(C)C)N(C)C(=O)[C@H](C)N(C)C(=O)[C@H]([C@@H](C)O)NC(=O)[C@H](Cc2ccccc2)N(C)C(=O)[C@H](Cc2ccccc2)N(C)C(=O)[C@H](CC(C)C)N(C)C1=O` [DP-366] ([NMeGABA][NMeL][NMeA]I[NMeL][NMeF][NMeF]T[NMeA][NMeL]D[NMeF]A-Piperidide; lactam N-11), 14 ×10⁻⁶ cm/s.

Regarding `CC[C@H](C)[C@H](NC(=O)[C@H](C)N(C)C(=O)[C@@H](NC(=O)[C@H](Cc1ccccc1)N(C)C(=O)[C@H](CC(C)C)N(C)C(=O)[C@@H]1CC(=O)N[C@H](C)C(=O)N[C@@H](C(C)C)C(=O)N(C)[C@@H](Cc2ccccc2)C(=O)N(C)[C@@H](CC(C)C)C(=O)N(C)[C@@H](C)C(=O)N[C@@H]([C@@H](C)O)C(=O)N[C@@H](Cc2ccccc2)C(=O)N1)C(C)C)C(=O)N1CCCCC1` [DP-570] ([dA]V[NMeF][NMeL][NMeA]TFD[NMeL][NMeF]V[NMeA]I-Piperidide; lactam N-8), the Papp at 18 hours, 50 µM was determined as 2.1 ×10⁻⁶ cm/s. For the compound `CC(C)C[C@@H]1NC(=O)[C@H](Cc2ccccc2)N(C)C(=O)[C@H](C)NC(=O)[C@H](C)N(C)C(=O)[C@H]([C@@H](C)O)NC(=O)[C@H](CC(C)C)N(C)C(=O)[C@H](C)N(C)C(=O)C[C@@H](C(=O)N2CCCCC2)NC(=O)[C@H](CC(C)C)N(C)C(=O)[C@H](Cc2ccccc2)N(C)C(=O)[C@H](CC(C)C)N(C)C1=O` [DP-156] ([NMeA][NMeL]T[NMeA]A[NMeF]L[NMeL][NMeF][NMeL]D-Piperidide; lactam N-11), the Papp at 18 hours, 50 µM turned out to be 24 ×10⁻⁶ cm/s. `CC[C@H](C)[C@@H]1NC(=O)[C@H](Cc2ccccc2)N(C)C(=O)[C@H](C)N(C)C(=O)[C@H](CC(C)C)N(C)C(=O)[C@H](Cc2ccccc2)N(C)C(=O)CCN(C)C(=O)C[C@@H](C(=O)N(C)[C@@H](Cc2ccccc2)C(=O)N(C)[C@@H](Cc2ccccc2)C(=O)N[C@@H](C)C(=O)N2CCCCC2)NC(=O)[C@H]([C@@H](C)O)NC(=O)[C@H](CC(C)C)N(C)C(=O)[C@H](CC(C)C)N(C)C1=O` [DP-499] ([NMeβAla][NMeF][NMeL][NMeA][NMeF]I[NMeL][NMeL]TD[NMeF][NMeF]A-Piperidide; lactam N-10): the Papp at 18 hours, 50 µM is 0.31 ×10⁻⁶ cm/s. With `CC[C@H](C)[C@@H]1NC(=O)[C@H](C)N(C)C(=O)[C@H]([C@@H](C)O)NC(=O)[C@H](CC(C)C)N(C)C(=O)[C@H](Cc2ccccc2)NC(=O)[C@H](C(C)C)N(C)C(=O)[C@H](CC(C)C)N(C)C(=O)[C@H](C)N(C)C(=O)C[C@@H](C(=O)N(C)[C@@H](Cc2ccccc2)C(=O)N[C@@H](C)C(=O)N2CCCCC2)NC(=O)[C@H](CC(C)C)N(C)C1=O` [DP-376] ([NMeA][NMeL][NMeV]F[NMeL]T[NMeA]I[NMeL]D[NMeF]A-Piperidide; lactam N-10), the Papp at 18 hours, 50 µM stood at 29 ×10⁻⁶ cm/s.

Consider `CC(C)C[C@H]1C(=O)N(C)[C@@H](Cc2ccccc2)C(=O)N(C)[C@@H](Cc2ccccc2)C(=O)N[C@@H]([C@@H](C)O)C(=O)N(C)[C@@H](C)C(=O)N(C)[C@@H](CC(C)C)C(=O)N[C@H](C(=O)N2CCCCC2)CC(=O)N(C)[C@H](C)C(=O)N(C)[C@@H](CC(C)C)C(=O)N(C)[C@@H](CC(C)C)C(=O)N[C@@H](C)C(=O)N1C` [DP-166] ([dNMeA][NMeL][NMeL]A[NMeL][NMeF][NMeF]T[NMeA][NMeL]D-Piperidide; lactam N-11), for which the Papp at 18 hours, 50 µM was 55 ×10⁻⁶ cm/s. Same read-out and setting: to `CC[C@H](C)[C@@H]1NC(=O)[C@H](CC(C)C)N(C)C(=O)[C@H](C)N(C)C(=O)[C@H](C)N(C)C(=O)CCN(C)C(=O)C[C@@H](C(=O)N(C)[C@@H](Cc2ccccc2)C(=O)N[C@@H](C)C(=O)N2CCCCC2)NC(=O)[C@H](Cc2ccccc2)N(C)C(=O)[C@H](C)N(C)C(=O)[C@H]([C@@H](C)O)NC(=O)[C@H](Cc2ccccc2)N(C)C(=O)[C@H](C)N(C)C1=O` [DP-362] ([NMeβAla][NMeA][NMeA][NMeL]I[NMeA][NMeF]T[NMeA][NMeF]D[NMeF]A-Piperidide; lactam N-11) belongs 27 ×10⁻⁶ cm/s; to `CC(C)C[C@@H]1NC(=O)[C@H](CC(C)C)N(C)C(=O)[C@H](C)N(C)C(=O)C[C@@H](C(=O)N(C)[C@@H](Cc2ccccc2)C(=O)N[C@@H](C)C(=O)N2CCCCC2)NC(=O)[C@H]([C@@H](C)O)NC(=O)[C@H](CC(C)C)N(C)C(=O)[C@H](Cc2ccccc2)NC(=O)[C@H](Cc2ccccc2)N(C)C(=O)[C@H](CC(C)C)N(C)C1=O` [DP-387] ([NMeA][NMeL]L[NMeL][NMeF]F[NMeL]TD[NMeF]A-Piperidide; lactam N-9), 2.8 ×10⁻⁶ cm/s; to `CC(C)C[C@H]1C(=O)N(C)[C@@H](CC(C)C)C(=O)N[C@H](C(=O)N(C)[C@@H](Cc2ccccc2)C(=O)N[C@@H](C)C(=O)N2CCCCC2)CC(=O)N[C@H](C(C)C)C(=O)N(C)[C@@H](C)C(=O)N(C)[C@@H](Cc2ccccc2)C(=O)N(C)[C@@H](CC(C)C)C(=O)N[C@@H](Cc2c[nH]cn2)C(=O)N(C)CC(=O)N[C@@H](C(C)C)C(=O)N1C` [DP-585] ([dV][NMeA][NMeF][NMeL]H[Sar]V[NMeL][NMeL]D[NMeF]A-Piperidide; lactam N-10), 15 ×10⁻⁶ cm/s.

The values are drawn from patent US9409952B2, “Peptide-compound cyclization method” (Chugai Seiyaku Kabushiki Kaisha, priority 2011, dated 2016).
